These results are taken from US9868698B2, “(2S,4R)-5-(5′-chloro-2′-fluorobiphenyl-4-yl)-4-(ethoxyoxalylamino)-2-hydroxymethyl-2-methylpentanoic acid” (THERAVANCE BIOPHARMA R&D IP, LLC, priority 2015, dated 2018).

Molecules are shown by their SMILES.

Data set [1] can be described thus: IV/PO pharmacokinetic study in rats (Assay 3). Type of data set: in vivo. Conditions: male, Sprague-Dawley, plasma; rat, IV; analyte = compound dosed (active metabolite); read-out: AUClast Mean. Here is the method:
(§1) Each rat or dog pharmacokinetic study began with formulation of the test compound. Appropriate masses of each test compound were added into a volume of vehicle (e.g. 5% sodium bicarbonate, 5% dextrose in water) such that the final concentration of each compound was appropriate to be dosed at 2 mL/kg. Although a homogenous suspension were acceptable for oral dosing, intravenous dosing solutions were sterile-filtered (0.2 μm) prior to dosing to ensure no particulates were administered.
In the rat study, pre-cannulated male Sprague-Dawley rats (3 per route) between 8 and 10 weeks of age were obtained from Harlan Laboratories (Indianapolis, Ind.). Rats received either a single oral gavage or a single intravenous (via lateral tail vein) dose of the dosing solution. The final dose was typically 0.5-3 mg/kg. Serial blood samples were harvested via the cannula implanted in the jugular vein at 3 minutes, 15 minutes, 30 minutes, 1 hour, 2 hours, 4 hours, 6 hours, and 24 hours post-dose. Sampling was performed either manually or using automated blood samplers. Samples were collected into microtainer tubes containing sodium fluoride, potassium oxalate and paraoxon, and were processed to plasma by refrigerated centrifugation.
(§2) Plasma samples were extracted with 3 volumes of MeCN containing a suitable internal standard. Extracts were reconstituted into 3 volumes of water containing 1% formic acid, and analyzed via HPLC-coupled MS/MS. Plasma concentration-time data were analyzed using the Phoenix software (Pharsight Corp., St. Louis, Mo.) to calculate pharmacokinetic parameters.

Data set [2] concerns the target T1, NEP (Homo sapiens, UniProt P08473). The data set is described as follows: In vitro enzyme inhibition assay, human NEP (Assay 1). Type of data set: biochemical. Also on record: purchased R&D Systems 1182-ZN. Conditions: read-out: human pKi (converted). How it is done: (§3) The inhibitory activities at human and rat neprilysin (EC 3.4.24.11; NEP) were determined using in vitro assays as described below.
Recombinant human NEP was obtained commercially (R&D Systems, Minneapolis, Minn., catalog number 1182-ZN). The fluorogenic peptide substrate Mca-D-Arg-Arg-Leu-Dap-(Dnp)-OH (Medeiros et al. (1997) Braz. J. Med. Biol. Res. 30:1157-62; Anaspec, San Jose, Calif.) was used.
(§4) The assays were performed in 384-well white opaque plates at 37° C. using the fluorogenic peptide substrate at a concentration of 10 μM in Assay Buffer (50 mM HEPES, pH 7.5, 100 mM NaCl, 0.01% polyethylene glycol sorbitan monolaurate (Tween-20), 10 μM ZnSO4).
(§5) Test compounds were assayed over the range of concentrations from 10 μM to 20 pM. Test compounds were added to the enzyme and incubated for 30 minute at 37° C. prior to initiating the reaction by the addition of substrate. Reactions were terminated after 20 minutes of incubation at 37° C. by the addition of glacial acetic acid to a final concentration of 3.6% (v/v).
(§6) Plates were read on a fluorometer with excitation and emission wavelengths set to 320 nm and 405 nm, respectively. Inhibition constants were obtained by nonlinear regression of the data using the equation (GraphPad Software, Inc., San Diego, Calif.): v=v0/[1+(I/K′)] where v is the reaction rate, v0 is the uninhibited reaction rate, I is the inhibitor concentration and K′ is the apparent inhibition constant.
Target sequence in this assay (P08473 52-750 limits assumed): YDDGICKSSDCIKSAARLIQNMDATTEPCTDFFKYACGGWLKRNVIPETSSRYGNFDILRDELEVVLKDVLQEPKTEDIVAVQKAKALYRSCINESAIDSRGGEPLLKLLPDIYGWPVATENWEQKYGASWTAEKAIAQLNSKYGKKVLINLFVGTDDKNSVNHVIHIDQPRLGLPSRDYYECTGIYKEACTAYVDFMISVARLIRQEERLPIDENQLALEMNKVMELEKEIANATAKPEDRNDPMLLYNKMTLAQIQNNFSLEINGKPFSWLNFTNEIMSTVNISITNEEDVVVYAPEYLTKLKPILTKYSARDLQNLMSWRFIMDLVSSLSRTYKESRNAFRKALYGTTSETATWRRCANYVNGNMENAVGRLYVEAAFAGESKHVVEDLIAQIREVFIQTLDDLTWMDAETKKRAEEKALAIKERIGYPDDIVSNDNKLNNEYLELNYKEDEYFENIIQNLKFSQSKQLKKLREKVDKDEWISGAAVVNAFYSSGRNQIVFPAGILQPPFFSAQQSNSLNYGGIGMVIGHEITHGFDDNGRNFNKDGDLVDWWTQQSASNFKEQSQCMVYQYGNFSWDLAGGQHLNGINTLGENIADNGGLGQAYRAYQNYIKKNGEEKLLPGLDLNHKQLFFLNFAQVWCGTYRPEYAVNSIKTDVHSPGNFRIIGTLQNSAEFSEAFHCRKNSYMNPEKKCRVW

Another data set concerns the target T2, Rat NEP (Rattus norvegicus, UniProt P07861).
T2 construct: leaving a viscous oily precipitate containing the enriched membrane fraction; from tissue; host or cells: kidneys of adult Sprague Dawley rats (Triton X-114 enriched membrane fraction)
T2 sequence (P07861 1-750): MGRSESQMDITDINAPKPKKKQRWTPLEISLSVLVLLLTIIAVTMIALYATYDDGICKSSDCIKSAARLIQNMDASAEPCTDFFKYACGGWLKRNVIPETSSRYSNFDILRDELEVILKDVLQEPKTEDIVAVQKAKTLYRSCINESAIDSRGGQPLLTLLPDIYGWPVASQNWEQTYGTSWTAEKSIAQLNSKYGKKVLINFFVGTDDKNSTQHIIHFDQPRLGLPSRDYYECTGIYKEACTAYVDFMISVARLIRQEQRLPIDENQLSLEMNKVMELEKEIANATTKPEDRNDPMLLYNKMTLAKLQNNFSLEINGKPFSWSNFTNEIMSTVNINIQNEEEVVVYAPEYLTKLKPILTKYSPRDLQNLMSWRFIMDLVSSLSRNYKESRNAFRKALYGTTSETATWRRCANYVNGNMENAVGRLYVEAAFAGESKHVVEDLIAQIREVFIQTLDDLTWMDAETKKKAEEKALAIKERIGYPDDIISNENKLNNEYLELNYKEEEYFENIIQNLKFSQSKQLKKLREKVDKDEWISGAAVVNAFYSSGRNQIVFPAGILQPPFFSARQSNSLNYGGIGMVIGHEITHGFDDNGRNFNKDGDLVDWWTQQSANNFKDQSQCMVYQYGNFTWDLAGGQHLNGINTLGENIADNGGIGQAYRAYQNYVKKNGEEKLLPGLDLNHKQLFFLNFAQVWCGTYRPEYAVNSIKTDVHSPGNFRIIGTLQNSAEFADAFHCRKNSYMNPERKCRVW
As to the kind of experiment: In vitro enzyme inhibition assay, rat NEP (Assay 1). The format is biochemical. The note with it: NEP from rat kidneys; read-out: rat pKi (converted). How it is done:
as §3
Rat NEP was prepared from the kidneys of adult Sprague Dawley rats. Whole kidneys were washed in cold phosphate buffered saline (PBS) and brought up in ice-cold lysis buffer (1% Triton X-114, 150 mM NaCl, 50 mM tris(hydroxymethyl) aminomethane (Tris) pH 7.5; Bordier (1981) J. Biol. Chem. 256: 1604-1607) in a ratio of 5 mL of buffer for every gram of kidney. Samples were homogenized on ice using a polytron hand held tissue grinder. Homogenates were centrifuged at 1000×g in a swinging bucket rotor for 5 minutes at 3° C. The pellet was resuspended in 20 mL of ice cold lysis buffer and incubated on ice for 30 minutes. Samples (15-20 mL) were then layered onto 25 mL of ice-cold cushion buffer (6% w/v sucrose, 50 mM pH 7.5 Tris, 150 mM NaCl, 0.06%, Triton X-114), heated to 37° C. for 3-5 minutes and centrifuged at 1000×g in a swinging bucket rotor at room temperature for 3 minutes. The two upper layers were aspirated off, leaving a viscous oily precipitate containing the enriched membrane fraction. Glycerol was added to a concentration of 50% and samples were stored at −20° C. Protein concentrations were quantitated using a BCA detection system with bovine serum albumin (BSA) as a standard.
as §4, §5, §6

The nature of data set [3]: IV/PO pharmacokinetic study in dogs (Assay 3). The note with it: male, beagle, plasma, dog, read-out: AUClast Mean. Type of data set: in vivo. How it is done: as §1
In the dog study, male beagle dogs (3 per route) housed at Agilux Laboratories (Worcester, Mass.) and weighing between 7-12 kg received either a single oral gavage or a single intravenous (via indwelling catheter) dose of the dosing solution. The final dose was typically 0.1-2 mg/kg. Serial blood samples were harvested via direct venipuncture at 3 minutes, 15 minutes, 30 minutes, 1 hour, 2 hours, 4 hours, 6 hours, 8 hours, 12 hours, and 24 hours post-dose. All samples were collected manually into microtainer tubes containing sodium fluoride, potassium oxalate and paraoxon, and were processed to plasma by refrigerated centrifugation.
as §2

Data set [4] addresses T1, NEP. The note with it: reported in U.S. Patent Application Publication No. 2013/0109639; cited from earlier work.
Target sequence in this assay (P08473 whole entry): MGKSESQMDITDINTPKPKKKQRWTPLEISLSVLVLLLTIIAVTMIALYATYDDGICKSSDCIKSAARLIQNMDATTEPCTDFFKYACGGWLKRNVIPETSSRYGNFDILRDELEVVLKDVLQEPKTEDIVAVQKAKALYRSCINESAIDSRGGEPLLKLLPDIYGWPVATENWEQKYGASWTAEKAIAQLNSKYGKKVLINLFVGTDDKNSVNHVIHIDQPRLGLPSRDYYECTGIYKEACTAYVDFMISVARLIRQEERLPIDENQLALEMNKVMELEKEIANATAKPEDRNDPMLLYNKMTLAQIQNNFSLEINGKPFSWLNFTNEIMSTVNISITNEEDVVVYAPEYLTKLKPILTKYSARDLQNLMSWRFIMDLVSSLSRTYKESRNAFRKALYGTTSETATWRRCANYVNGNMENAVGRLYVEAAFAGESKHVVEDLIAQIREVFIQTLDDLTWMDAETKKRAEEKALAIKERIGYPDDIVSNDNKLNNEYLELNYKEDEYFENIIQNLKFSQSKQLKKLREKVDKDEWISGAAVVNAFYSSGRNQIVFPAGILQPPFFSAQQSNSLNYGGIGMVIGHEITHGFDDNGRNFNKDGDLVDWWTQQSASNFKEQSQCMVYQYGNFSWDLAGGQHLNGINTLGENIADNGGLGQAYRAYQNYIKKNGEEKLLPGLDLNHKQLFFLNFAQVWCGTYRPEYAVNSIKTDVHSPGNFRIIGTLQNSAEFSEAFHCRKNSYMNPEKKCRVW
A short description of data set [5]: Renal excretion in male beagle dogs (Assay 4). The format is in vivo. The note with it: dog, IV 1.0 mg/kg. Here is the method:
An important factor for insuring appropriate long term drug dosing and correct steady-state drug concentrations in patients is drug clearance. In general, decreased drug clearance results in higher drug concentrations and greater drug effects.
Male beagle dogs (N=3), having body weights of 9.58-10.42 kg, received an IV dose of 1.0 mg/kg of Compound 1. Compound 1 was formulated in 5% NaHCO3 in D5W. The dogs were fasted overnight and pretreated with pentagastrin (60 μg/mL, 0.1 mL/kg, IM) approximately 30 minutes prior to dose administration to stimulate gastric secretion. Food was returned approximately 4 hours postdose. Urine samples were collected surrounded by cold ice packs during the collection period. After 24 hours, the sample weight was recorded, the sample was thoroughly mixed, and aliquots were obtained and frozen (−80° C.) prior to bioanalysis.
Dog urine concentrations of Compound 1 were determined by LC/MS/MS. Urine study samples (diluted in plasma) were vortexed and 50 μL was placed in a 96-well plate. The samples were extracted with acetonitrile with internal standard chrysin. The extract was centrifuged and supernatant was transferred to a new 96-well plate and diluted 1 part sampe in 4 parts water with 0.2% formic acid. Samples (12 μL) were injected on a Waters Acquity UPLC BEH C18 (50×2.1 mm, 1.7 μm) column with a flow rate of 0.9 mL/min. […]

A short description of data set [6]: Exposure of crystals to ambient conditions. The format is physicochemical.

Take `C[C@@](CO)(C[C@@H](Cc1ccc(-c2cc(Cl)ccc2F)cc1)NC(=O)C(=O)O)C(=O)O` [Comparison Compound C2, (2S,4R)-5-(5′-Chloro-2′-fluorobiphenyl-4-yl)-2-hydroxymethyl-2-methyl-4-(oxalylamino)pentanoic Acid]: the AUC(0-t) in data set [1] is 16000 ng·h/mL; in data set [3] (IV, analyte = compound dosed (active metabolite)), 1970 ng·h/mL. Besides, the Ki at NEP [2] was 0.631 nM; at Rat NEP, 0.316 nM. The “pKi at NEP” value at NEP [4] was at least 9.
On to `CCOC(=O)C(=O)N[C@H](Cc1ccc(-c2cc(Cl)ccc2F)cc1)C[C@@](C)(CO)C(=O)O` [Compound 1, (2S,4R)-5-(5′-Chloro-2′-fluorobiphenyl-4-yl)-4-(ethoxyoxalylamino)-2-hydroxymethyl-2-methylpentanoic Acid], for which the “Amount of Compound 1 Excreted in Urine over Collection Period (0-24 hrs) Mean” value in data set [5] was found to be 28.9 µg. In addition, the “Urinary Excretion (approximate % of administred dose excreted in urine) Mean” value in data set [5] (0-24 hrs, 1 mg/kg) amounted to 0.284%. Besides, the Ki on NEP [2] and on Rat NEP was 0.794 nM in each case. For the same molecule, the AUC(0-t) in data set [3] (PO, analyte = compound dosed (prodrug)) is 3.7 ng·h/mL.
For `CCOC(=O)C(=O)N[C@H](Cc1ccc(-c2cc(Cl)ccc2F)cc1)C[C@@](C)(CO)C(=O)O` [Compound 1″, L-Arginine (2S,4R)-5-(5′-Chloro-2′-fluoro-[1,1′-bipheny]-4-yl)-4-(2-ethoxy-2-oxoacetamido)-2-(hydroxymethyl)-2-methylpentanoate], the “behaviour of crystals at ambient conditions (in words)” value in data set [6] is recorded as “slow deliquescence”.

Usually pKi stands for the negative decadic logarithm of the Ki, by convention in mol/L.
